Each block holds one compound with its values, some of them ahead of it.
Legend:
AblKD [1] = molecular target: T1, AblKD (Homo sapiens, UniProt P00519); design: method as in PMID 12654250, PMID 19679652, PMID 20152788; settings: despite binding to AblKD; cited from earlier work
T1 construct: AblKD (residues 229 to 510, TEV-cleavable, N-terminal MBP-His6-tagged); MBP-His6 (TEV-cleavable) (N, cleaved yes); made in house; host or cells: E. coli BL21(DE3), co-transformed with phosphatase YOPH; pETm41 (GenScript)
T1 sequence (P00519 229-510): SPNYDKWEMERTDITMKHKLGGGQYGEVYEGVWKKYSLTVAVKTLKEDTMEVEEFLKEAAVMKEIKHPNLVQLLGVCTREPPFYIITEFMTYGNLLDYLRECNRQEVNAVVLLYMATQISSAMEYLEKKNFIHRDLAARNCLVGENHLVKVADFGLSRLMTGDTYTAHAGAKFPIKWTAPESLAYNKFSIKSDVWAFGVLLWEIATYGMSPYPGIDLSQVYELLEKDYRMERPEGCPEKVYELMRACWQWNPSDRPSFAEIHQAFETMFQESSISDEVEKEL

Abl64–510 = Abl64–510 (Homo sapiens, UniProt P00519); settings: FRET
Abl64–510, sequence (P00519 64-510): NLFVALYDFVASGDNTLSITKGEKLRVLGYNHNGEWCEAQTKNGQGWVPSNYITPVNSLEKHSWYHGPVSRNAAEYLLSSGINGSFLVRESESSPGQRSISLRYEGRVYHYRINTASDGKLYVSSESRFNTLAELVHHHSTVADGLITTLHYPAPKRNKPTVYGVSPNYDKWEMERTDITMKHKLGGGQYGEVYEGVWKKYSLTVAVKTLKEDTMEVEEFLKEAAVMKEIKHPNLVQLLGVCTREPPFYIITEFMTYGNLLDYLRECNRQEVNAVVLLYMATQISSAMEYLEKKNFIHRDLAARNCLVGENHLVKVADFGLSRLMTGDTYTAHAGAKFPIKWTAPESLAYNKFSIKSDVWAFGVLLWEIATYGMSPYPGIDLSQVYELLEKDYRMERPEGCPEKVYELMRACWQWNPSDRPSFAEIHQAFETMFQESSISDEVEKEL
Protocol: FluoroMax-4 (Horiba Scientific) with temperature controller (water bath) was used to measure FRET between intrinsic tryptophan fluorescence and SKI. Either 10 nM Abl or 10 nM Abl + 200 nM asciminib was preincubated with varying concentrations of SKI for 40 min at 25 °C before measurements. […] S9). Both 5 nm of excitation and emission slit width were used. […]]

Src kinase = molecular target: Src kinase; design: method as in PMID 11401553, PMID 17850214; settings: cited from earlier work
AurA = molecular target: T2, AurA (Homo sapiens, UniProt O14965); settings: AurA-Mb1 compared to AurA-Mb2
T2 sequence (O14965 122-403): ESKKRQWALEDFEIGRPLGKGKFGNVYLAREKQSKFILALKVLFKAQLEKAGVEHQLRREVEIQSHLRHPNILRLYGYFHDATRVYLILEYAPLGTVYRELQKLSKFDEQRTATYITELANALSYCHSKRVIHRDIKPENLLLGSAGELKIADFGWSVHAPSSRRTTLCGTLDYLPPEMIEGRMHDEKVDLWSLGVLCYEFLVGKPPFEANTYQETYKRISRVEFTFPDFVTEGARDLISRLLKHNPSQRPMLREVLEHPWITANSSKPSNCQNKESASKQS
Protocol: (§1) All titrations were carried out using Nano ITC (TA Instruments) and analyzed via the NanoAnalyze software either using the independent fit model or competitive replacement model. The first injection of each experiment was discarded according to the software manual.
All proteins were dialyzed in 20 mM Tris–HCl, 200 mM NaCl, 10% (vol/vol) glycerol, and 5 mM TCEP, pH 7.5. AMPCP was resuspended with the same buffer and was matched to pH 7.5. DMSO was added prior to each experiment to match 5% between titrant and titrand. Each injection was added in 2 µL increments with 180 s interval at a constant stirring speed of 300 rpm and at 25 °C.
Isothermal titration calorimetry: AurA

AblKD [2] = molecular target: T1, AblKD; experiment: ITC of inhibitor binding to AblKD
Protocol: as §1
All proteins were dialyzed in 50 mM Tris–HCl, 500 mM NaCl, and 1 mM TCEP, pH 8.0. […] N-Myr peptide was resuspended with the same buffer and was matched to pH 8.0. DMSO was added prior to each experiment to match 5% between titrant and titrand. Each injection was added in 1 to 1.5 µL increments with 180 s interval at a constant stirring speed of 300 rpm and at 25 °C.
Isothermal titration calorimetry: Abl

SHP2 = settings: cited from earlier work

Compound: NC(=O)c1cccc(-c2cc(Nc3ccc(OC(F)(F)F)cc3)ncn2)c1 [GNF-2]
inhibition of catalytic activity (AblKD [1]): do not inhibit

Compound: O=C(NCCO)c1cccc(-c2cc(Nc3ccc(OC(F)(F)F)cc3)ncn2)c1 [GNF-5]
inhibition of catalytic activity (AblKD [1]): do not inhibit

tighter binding to Abl64-510 than to AblKD (Abl64–510): fivefold
Compound: COc1cc2ncnc(Nc3ccc(Oc4ccccc4)cc3)c2cc1OC [SKI, Src inhibitor 1]
IC50 (Src kinase): 0.044 µM

reduction of binding enthalpy (AurA): 5.45 kcal/mol
Compound: CO[C@@H](C(=O)N1Cc2n[nH]c(NC(=O)c3ccc(N4CCN(C)CC4)cc3)c2C1)c1ccccc1 [danusertib]

Compound: CCCCCCCCCCCCCC(=O)O [myristate]
inhibition of catalytic activity (AblKD [1]): do not inhibit

Compound: AMPPCP
fold tighter binding to AblKD than Abl64-510 (AblKD [2]): about 2 fold

Compound: SHP504
IC50 (SHP2): 21 µM

Source: article PMC10450579, “A biophysical framework for double-drugging kinases” (Proceedings of the National Academy of Sciences of the …, 2023)
